25 molecules from ChEMBL document CHEMBL5360534, “Synthetic α-glucosidase inhibitors as promising anti-diabetic agents: Recent developments and future challenges” (Eur J Med Chem, 2023) can be followed below.

Experiment [1] in a line: Inhibition of Saccharomyces cerevisiae alpha-glucosidase type I using p-nitrophenyl-alpha-D-glucopyranoside as substrate preincubated for 10 mins followed by substrate addition and measured after 20 mins by spectrophotometric analysis.
Experiment [2] is described as follows: Inhibition of alpha-glucosidase (unknown origin) assessed as reduction in starch digestion preincubated with alpha-amylase for 20 mins followed by alpha-glucosidase addition and measured after 30 mins by absorbance based analysis. Further details: species or system Homo sapiens.
Experiment [3] has as its target T1, Alpha-glucosidase (Saccharomyces cerevisiae S288c, UniProt P53341+P38158+P07265). The experiment is described as follows: Inhibition of Saccharomyces cerevisiae alpha-glucosidase. Type of experiment: protein assay.
For experiment [4], the target named is Alpha-glucosidase (Saccharomyces cerevisiae S288c) (UniProt P53341+P38158+P07265). The experiment is described as follows: Potency index, ratio of acarbose IC50 to test compound IC50 for inhibition of Saccharomyces cerevisiae alpha-glucosidase. In kind it is protein assay.
The nature of experiment [5]: Inhibition of alpha-glucosidase (unknown origin) using p-nitrophenyl-alpha-D-glucopyranoside as substrate preincubated for 15 mins followed by substrate addition and measured after 30 mins by multiplate spectrophotometric analysis. Set-up: species or system Homo sapiens.
Experiment [6] can be described thus: Inhibition of alpha-glucosidase (unknown origin) using p-nitrophenyl-alpha-D-glucopyranoside as substrate preincubated for 15 mins followed by substrate addition and measured after 15 mins by absorbance based microplate reader analysis. Further details: species or system Homo sapiens.
The target of experiment [7] is T1, Alpha-glucosidase. In words: Inhibition of Saccharomyces cerevisiae alpha-glucosidase using p-nitrophenyl-alpha-D-glucopyranoside as substrate incubated for 30 mins by spectrophotometric analysis. Type of experiment: protein assay.
The species named for experiment [8] is Homo sapiens. The experiment is described as follows: Inhibition of alpha-glucosidase (unknown origin) using p-nitrophenylglucopyranoside as substrate at 100 microg/ml preincubated for 10 mins followed by substrate addition and measured by absorbance based analysis relative to control. Particulars: dose 100.0 µg/ml.
Experiment [9] can be described thus: Inhibition of alpha-glucosidase (unknown origin) using p-nitrophenylglucopyranoside as substrate preincubated for 10 mins followed by substrate addition and measured by absorbance based analysis. Set-up: species or system Homo sapiens.
The target in experiment [10] is T1, Alpha-glucosidase. In words: Inhibition of Saccharomyces cerevisiae alpha-glucosidase by absorbance based microplate reader analysis. Type of experiment: protein assay.
A short description of experiment [11]: Inhibition of alpha-glucosidase (unknown origin) using pNPG as substrate preincubated for 15 mins followed by substrate addition and measured after 30 mins by microplate reader based analysis. Further details: species or system Homo sapiens.
Experiment [12] deals with T1, Alpha-glucosidase. In words: Inhibition of Saccharomyces cerevisiae alpha-glucosidase using p-nitrophenyl-alpha-D-glucopyranoside as substrate preincubated for 15 mins followed by substrate addition and measured after 30 mins by multiplate reader analysis. In kind it is protein assay.
For experiment [13], the target named is T1, Alpha-glucosidase. The experiment is described as follows: Inhibition of Saccharomyces cerevisiae alpha-glucosidase using p-nitrophenyl glucopyranoside as substrate preincubated for 10 mins followed by substrate addition and measured after 20 mins by spectrophotometric analysis. In kind it is protein assay.
Experiment [14] addresses T1, Alpha-glucosidase. In words: Competitive inhibition of Saccharomyces cerevisiae alpha-glucosidase using pNPG as substrate assessed as inhibition constant preincubated for 10 mins followed by substrate addition and measured after 20 mins by spectrophotometric analysis. Type of experiment: protein assay.
The target in experiment [15] is T1, Alpha-glucosidase. The experiment is described as follows: Competitive inhibition of Saccharomyces cerevisiae alpha-glucosidase assessed as inhibition constant. In kind it is protein assay.
The target in experiment [16] is T1, Alpha-glucosidase. In words: Inhibition of Saccharomyces cerevisiae alpha-glucosidase using p-nitrophenyl-alpha-D-glucopyranoside as substrate preincubated for 15 mins followed by substrate addition and measured after 20 mins by spectrophotometric analysis. Type of experiment: protein assay.
Experiment [17] in a line: Inhibition of alpha-glucosidase (unknown origin) using p-NPG as substrate preincubated for 5 mins followed by substrate addition and measured after 30 mins by absorbance based analysis. Further details: species or system Homo sapiens.
Experiment [18] is described as follows: Inhibition of alpha-glucosidase (unknown origin) using p-nitrophenyl-alpha-D-glucopyranoside as substrate preincubated for 15 mins followed by substrate addition and measured after 30 mins by absorbance based analysis. Set-up: species or system Homo sapiens.
The nature of experiment [19]: Inhibition of alpha-glucosidase (unknown origin) using p-nitrophenyl-alpha-D-glucopyranoside as substrate preincubated for 15 mins followed by substrate addition and measured after 30 mins by spectrophotometric analysis. Set-up: species or system Homo sapiens.
Experiment [20] deals with T1, Alpha-glucosidase. In words: Inhibition of Saccharomyces cerevisiae alpha-glucosidase using pNPG as substrate by spectrophotometric analysis. Type of experiment: protein assay.
Experiment [21] is described as follows: Inhibition of alpha-glucosidase (unknown origin) using pNPG as substrate preincubated for 15 mins followed by substrate addition and measured after 15 mins by spectrophotometric analysis. Set-up: species or system Homo sapiens.
Experiment [22] can be described thus: Inhibition of alpha-glucosidase (unknown origin) using pNPG as substrate by spectrophotometric analysis. Set-up: species or system Homo sapiens.
A short description of experiment [23]: Inhibition of alpha-glucosidase (unknown origin) using pNPG as substrate assessed as inhibition constant by spectrophotometric analysis. Set-up: species or system Homo sapiens.
The target of experiment [24] is T1, Alpha-glucosidase. The experiment is described as follows: Inhibition of Saccharomyces cerevisiae alpha-glucosidase using p-nitrophenyl-alpha-D-glucopyranoside as substrate preincubated for 10 mins followed by substrate addition and measured after 30 mins by absorbance based microplate reader analysis. Type of experiment: protein assay.
In experiment [25] the target is T1, Alpha-glucosidase. The experiment is described as follows: Inhibition of Saccharomyces cerevisiae alpha-glucosidase using p-nitrophenyl-alpha-D-glucopyranoside as substrate preincubated for 10 mins followed by substrate addition and measured after 30 mins by absorbance based analysis. In kind it is protein assay.
Experiment [26] can be described thus: Inhibition of alpha-glucosidase (unknown origin) using pNPG as substrate preincubated for 20 mins followed by substrate addition and measured after 1 hr by absorbance based analysis. Set-up: species or system Homo sapiens.

pIC50, pKi: −log10 of the molar value.

With `O=[N+]([O-])c1ccc(-c2nn(-c3ccccc3)cc2-c2nc(-c3ccccc3)c(-c3ccccc3)n2-c2ccc(Br)cc2)cc1`, the pIC50 (in general, −log10 of the IC50, conventionally taken in molar units) in experiment [1] was 4.47.
In the case of `C=c1[nH]c(=O)s/c1=C/c1ccc(Oc2nc3ccccc3n2Cc2ccc(Cl)cc2)cc1`, in experiment [2], the pIC50 is 6.27.
Consider `O=c1cc(-c2ccc(OCc3cn(Cc4ccc(Cl)cc4)nn3)cc2)oc2ccccc12`, for which, in experiment [3], the IC50 (in general, the concentration at which inhibition is half-maximal) amounted to 24.77 µM. Moreover, in experiment [4], the Ratio IC50 came to 35.
On to `CCCCCCSc1nc2ccccc2n1CC(=O)NN1C(=O)CSC1c1ccc(O)c(OC)c1` (stereo not given), for which the pIC50 in [5] was 4.99.
The molecule `COc1cc2c(=O)c(-c3ccccc3)coc2cc1O/C(=C\N(C)C)C(=O)c1ccc(Cl)cc1` had a pIC50 in experiment [6] of 3.05.
Molecule `O=C(CCCSc1nc2ccccc2s1)Nc1cccc2ccccc12` yielded a half-maximal inhibitory concentration (IC50) in experiment [7] of 11 µM.
Consider `Nc1ccccc1-c1nn(CNN2CCOCC2)c(=S)o1`, for which the inhibition – broadly, how much of the control response was suppressed – in experiment [8] was 85%. Also, the pIC50 in experiment [9] was 4.27.
As to `COc1ccc(/N=C2/NC(=O)/C(=C/c3cn(-c4ccccc4)nc3-c3ccc([N+](=O)[O-])cc3)S2)cc1`, the IC50 in experiment [10] amounted to 4.48 µM.
For `O=C1Nc2ccc(Cl)cc2/C1=C\c1ccc(-c2nnc(-c3cc(O)cc(O)c3)o2)cc1`, in experiment [11], the pIC50 was 5.90.
`O=C(Cn1cc(Cn2c3ccccc3c3ccccc32)nn1)c1ccc(O)c(Br)c1` registered an IC50 in [12] of 1 µM.
In experiment [5], `CCCCCCSc1nc2ccccc2n1CC(=O)NN1C(=O)CSC1c1ccc(C=O)cc1` (stereo not given) gave a pIC50 of 5.24.
`CCOC(=O)c1c(SCc2cn(Cc3cccc([N+](=O)[O-])c3)nn2)nnc(-c2ccccc2)c1-c1ccccc1` gave an IC50 in experiment [13] of 85.6 µM. For the same molecule, the inhibition constant Ki (usually a measure of affinity in units of concentration, obtained from inhibition or displacement) in experiment [14] stood at 82 µM.
Consider `O=C(/C=C\c1ccc(OCc2cn(Cc3ccc(O)cc3)nn2)cc1)NCCc1c[nH]c2ccccc12`, for which the IC50 in [3] came out at 65 µM. For the same molecule, in [15], the Ki was found to be 64 µM.
The molecule `COc1ccc(/N=C2/NC(=O)/C(=C/c3cn(-c4ccccc4)nc3-c3ccc(OC)cc3)S2)cc1` yielded an IC50 in experiment [10] of 9.9 µM.
The molecule `Oc1ccc(-c2nc3cc(N4CCOCC4)ccc3[nH]2)cc1` came in with a concentration for half-maximal inhibition (IC50) in experiment [16] of 3.4 µM.
For the molecule `COc1ccccc1N1C(=O)/C(=C\c2ccc(F)cc2)S/C1=N\NC(=O)c1cc2ccccc2oc1=O`, the pIC50 in experiment [17] is 7.05.
In turn, `O=C1Nc2cc(Br)ccc2/C1=N/Nc1nc(-c2ccc(Br)cc2)cs1` showed a pIC50 in experiment [18] of 4.68.
The molecule `COc1ccc(-c2cn(C[C@@H](C)Oc3ccc(-c4ccc(C(F)(F)F)cc4)cc3OC)nn2)cc1` had a pIC50 in experiment [19] of 4.85.
Molecule `CCn1cc(C(=O)CC(c2ccc3ccccc3c2)C2C(=O)N(C)C(=O)N(C)C2=O)c2ccccc21` (stereo not given) showed an IC50 in experiment [20] of 13.02 µM.
`Cc1nn(-c2ccccc2)c(Cl)c1C1Nc2ccccc2C(=O)N1c1ccc(O)cc1` (stereo not given) had a pIC50 in [21] of 5.59.
In the case of `Cc1cc(C)cc(CS(=O)(=O)c2ccc(NC(=O)Nc3cccc(Cl)c3)cc2)c1`, the pIC50 in [22] is 8.04. Besides, in experiment [23], the pKi (as a rule, the Ki on a negative log10 scale, so that one unit is a factor of ten) was 7.89.
In turn, `Cc1ccc(NC(=O)C(C)Sc2nnc(-c3ccc(Cl)cc3)o2)cc1C` (stereo not given) gave an IC50 in [24] of 52.63 µM. This counts as double-digit micromolar.
`N#Cc1ccc2[nH]c(-c3nnc(Nc4ccc(Cl)c(Cl)c4)s3)cc2c1` yielded an IC50 in experiment [25] of 0.95 µM.
`Cc1ccc(S(=O)(=O)n2cc(-c3oc4cc(Br)cc(Br)c4c(=O)c3O)c3ccccc32)cc1` gave a pIC50 in [26] of 4.15.
In the case of `CCCCCCSc1nc2ccccc2n1CC(=O)NN1C(=O)CSC1c1ccc([N+](=O)[O-])cc1` (stereo not given), the pIC50 in experiment [5] was 5.28.
